Laboratory results: patent publication US5532267A, “Amidinonaphthyl furancarboxylate derivatives and acid addition salts therof” (Torii & Co., Ltd., priority 1992, dated 1996)
Structures can show the parent of a compound that is named as a salt. Where two headings read alike, the source gives them in different places.

How the values were obtained:
Type in all cases: biochemical
thrombin = thrombin (Homo sapiens, UniProt P00734); test: anti-thrombin activity, hydrolysis of TAME (tosylarginine methyl ester); conditions: for IC50: hydrolysis of TAME, read-out: Thr: molar concentration inhibiting 50% of enzyme activity (IC50); for inhibition at 10 µM: at a concentration of 1 × 10^-5 M, read-out: Thr: percentage inhibition
Experimental: (§1) The values in Table 1 represent molar concentrations (IC50) of test compounds which inhibit 50% of the activity of each enzyme to hydrolyze TAME (tosylarginine methyl ester). The anti-trypsin, anti-plasmin, anti-kallikrein and anti-thrombin activities were determined according to the method of Muramatsu et al. (J. Biochem. (1965), volume 58, page 214).

C1s = biological target: T1, C1s (Homo sapiens, UniProt P09871); test: anti-complement (anti-C1 esterase) activity, C1s hydrolysis of ATEE (acetyltyrosine ethyl ester); conditions: for IC50: hydrolysis of ATEE, read-out: Cls: molar concentration inhibiting 50% of C1s activity (IC50)
T1 sequence (P09871 16-688): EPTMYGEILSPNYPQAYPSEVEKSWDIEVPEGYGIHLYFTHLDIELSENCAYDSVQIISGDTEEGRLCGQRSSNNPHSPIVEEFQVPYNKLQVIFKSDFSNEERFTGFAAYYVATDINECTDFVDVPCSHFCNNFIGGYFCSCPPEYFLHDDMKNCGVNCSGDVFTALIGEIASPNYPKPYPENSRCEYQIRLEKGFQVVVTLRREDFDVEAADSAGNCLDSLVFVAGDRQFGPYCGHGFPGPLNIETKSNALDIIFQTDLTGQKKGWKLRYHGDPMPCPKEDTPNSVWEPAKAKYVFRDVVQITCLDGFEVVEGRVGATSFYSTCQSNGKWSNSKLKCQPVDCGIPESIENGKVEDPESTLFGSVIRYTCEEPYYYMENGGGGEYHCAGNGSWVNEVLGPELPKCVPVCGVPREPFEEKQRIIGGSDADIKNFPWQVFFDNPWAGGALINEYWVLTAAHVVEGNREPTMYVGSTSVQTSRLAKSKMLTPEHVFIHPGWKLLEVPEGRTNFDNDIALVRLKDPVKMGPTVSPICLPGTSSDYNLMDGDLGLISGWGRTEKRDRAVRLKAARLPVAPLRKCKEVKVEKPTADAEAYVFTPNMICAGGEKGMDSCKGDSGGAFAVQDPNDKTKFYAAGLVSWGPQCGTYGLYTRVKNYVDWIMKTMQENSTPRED
Experimental: The anti-C1 esterase (C1r, C1s) activity was determined according to the method of Okamura et al. (Biochem. Biophys. Acta (1973), volume 295, pages 252-257). […] The values for C1s represent molar concentrations (IC50) of test compounds which inhibit 50% of the activity of C1s to hydrolyze ATEE (acetyltyrosine ethyl ester).

kallikrein = test: anti-kallikrein activity, hydrolysis of TAME (tosylarginine methyl ester); conditions: for IC50: hydrolysis of TAME, read-out: Kal: molar concentration inhibiting 50% of enzyme activity (IC50); for Kal: percentage inhibition: at a concentration of 1 × 10^-5 M
Experimental: as §1

plasmin = plasmin (Homo sapiens, UniProt P00747); test: anti-plasmin activity, hydrolysis of TAME (tosylarginine methyl ester)
Experimental: as §1

trypsin = biological target: T2, trypsin (Bos taurus, UniProt P00760); test: anti-trypsin activity, hydrolysis of TAME (tosylarginine methyl ester)
T2 sequence (P00760 24-246): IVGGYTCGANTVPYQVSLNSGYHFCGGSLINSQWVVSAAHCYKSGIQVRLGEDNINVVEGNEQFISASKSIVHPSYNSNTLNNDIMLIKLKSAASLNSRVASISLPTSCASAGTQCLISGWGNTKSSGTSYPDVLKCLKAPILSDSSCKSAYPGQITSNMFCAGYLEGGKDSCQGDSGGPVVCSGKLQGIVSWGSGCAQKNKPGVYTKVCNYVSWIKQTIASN

C1r = biological target: T3, C1r (Homo sapiens, UniProt P00736); test: anti-complement (anti-C1 esterase) activity, C1r hydrolysis of AAME (acetyl-arginine methyl ester); conditions: for inhibition at 10 µM: read-out: Clr: percentage inhibition
T3 sequence (P00736 18-705): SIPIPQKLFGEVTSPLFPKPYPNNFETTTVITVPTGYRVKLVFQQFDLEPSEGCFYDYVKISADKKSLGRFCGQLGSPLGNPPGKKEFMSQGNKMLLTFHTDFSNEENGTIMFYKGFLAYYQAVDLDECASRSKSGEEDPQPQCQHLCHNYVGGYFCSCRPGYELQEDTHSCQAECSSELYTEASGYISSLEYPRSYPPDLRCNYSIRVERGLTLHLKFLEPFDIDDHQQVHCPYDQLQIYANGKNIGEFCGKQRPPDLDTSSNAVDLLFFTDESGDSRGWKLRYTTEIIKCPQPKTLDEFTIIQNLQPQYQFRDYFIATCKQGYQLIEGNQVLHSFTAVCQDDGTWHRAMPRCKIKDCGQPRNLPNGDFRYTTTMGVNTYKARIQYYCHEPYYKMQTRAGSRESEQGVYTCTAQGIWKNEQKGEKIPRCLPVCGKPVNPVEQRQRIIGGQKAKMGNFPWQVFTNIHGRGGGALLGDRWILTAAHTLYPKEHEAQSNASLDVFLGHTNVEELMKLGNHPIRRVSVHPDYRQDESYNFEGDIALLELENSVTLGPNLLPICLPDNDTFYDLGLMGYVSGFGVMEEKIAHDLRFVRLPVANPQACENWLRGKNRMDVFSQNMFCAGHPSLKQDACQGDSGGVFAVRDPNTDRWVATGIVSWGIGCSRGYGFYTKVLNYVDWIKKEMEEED

[1] = hydrolysis of TAME, read-out: Pla: molar concentration inhibiting 50% of enzyme activity (IC50)
[2] = hydrolysis of AAME, read-out: Clr: molar concentration inhibiting 50% of C1r activity (IC50)
[3] = hydrolysis of TAME, read-out: Try: molar concentration inhibiting 50% of enzyme activity (IC50)

plasmin, sequence (P00747 581-810 limits assumed, species assumed): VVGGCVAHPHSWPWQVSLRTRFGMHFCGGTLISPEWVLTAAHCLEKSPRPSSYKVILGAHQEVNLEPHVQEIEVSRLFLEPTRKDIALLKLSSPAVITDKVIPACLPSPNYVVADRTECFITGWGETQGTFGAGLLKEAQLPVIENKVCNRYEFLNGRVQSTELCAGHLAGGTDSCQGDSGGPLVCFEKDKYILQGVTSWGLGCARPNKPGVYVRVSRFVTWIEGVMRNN
plasmin, sequence (P00747 97-580 partner limits assumed, species assumed): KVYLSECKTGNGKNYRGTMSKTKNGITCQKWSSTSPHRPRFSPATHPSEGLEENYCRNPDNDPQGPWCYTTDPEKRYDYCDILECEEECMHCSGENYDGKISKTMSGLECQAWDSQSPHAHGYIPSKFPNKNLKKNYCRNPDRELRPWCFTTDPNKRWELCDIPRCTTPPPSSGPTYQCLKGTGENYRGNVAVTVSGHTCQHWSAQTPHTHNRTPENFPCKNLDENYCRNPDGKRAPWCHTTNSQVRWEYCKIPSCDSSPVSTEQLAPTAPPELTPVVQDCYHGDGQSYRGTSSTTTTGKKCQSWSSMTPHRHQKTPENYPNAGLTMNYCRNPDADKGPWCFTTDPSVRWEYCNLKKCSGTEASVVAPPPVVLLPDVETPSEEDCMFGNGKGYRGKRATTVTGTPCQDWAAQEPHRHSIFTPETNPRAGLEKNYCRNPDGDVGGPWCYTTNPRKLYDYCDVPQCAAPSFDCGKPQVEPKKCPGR

| IC50 (thrombin) [µM] | IC50 (C1s) [µM] | IC50 (kallikrein) [µM] | IC50 (plasmin; [1]) [µM] | IC50 (C1r; [2]) [µM] | IC50 (trypsin; [3]) [µM] | IC50 (C1r) [µM] | SMILES | IC50 (trypsin) [µM] | inhibition at 10 µM (thrombin) [%] | inhibition at 10 µM (C1s; read-out: Cls: percentage inhibition) [%] | Kal: percentage inhibition (kallikrein) [%] | inhibition at 10 µM (C1r; at a concentration of 1 × 10^-5 M) [%] | inhibition at 10 µM (trypsin; read-out: Try: percentage inhibition) [%] | inhibition at 10 µM (C1r) [%] | IC50 (plasmin) [µM] |
| --- | --- | --- | --- | --- | --- | --- | --- | --- | --- | --- | --- | --- | --- | --- | --- |
| 0.07 | 0.16 | 0.21 | 0.072 | 0.064 | 0.34 |  | COC(=O)Cc1ccc(C(=O)NCc2ccc(C(=O)Oc3ccc4cc(C(=N)N)ccc4c3)o2)cc1 [Example 4, 6-Amidino-2-naphthyl 5-(4-methoxycarbonylmethylbenzoylaminomethyl)furan-2-carboxylate hydrochloride] |  |  |  |  |  |  |  |  |
| 0.4 | 0.46 | 1.5 | 0.3 | 0.74 | 1.8 |  | N=C(N)c1ccc2cc(OC(=O)c3ccc(CNC(=O)c4ccc(CC(=O)O)cc4)o3)ccc2c1 [Example 7, 6-Amidino-2-naphthyl 5-(4-carboxymethylbenzoylaminomethyl)furan-2-carboxylate hydrochloride] |  |  |  |  |  |  |  |  |
| 1.4 | 2 | 2.7 | 1.1 | 0.83 | 2.1 |  | N=C(N)c1ccc2cc(OC(=O)c3ccc(CNC(=O)C=Cc4ccc(C(=O)O)cc4)o3)ccc2c1 [Example 8, 6-Amidino-2-naphthyl 5-(4-carboxycinnamoylaminomethyl)furan-2-carboxylate hydrochloride] |  |  |  |  |  |  |  |  |
| 0.65 | 2.3 | 6 | 0.5 | 2.8 | 4.8 |  | N=C(N)c1ccc2cc(OC(=O)c3ccc(CNC(=O)c4ccc(CCC(=O)O)cc4)o3)ccc2c1 [Example 9, 6-Amidino-2-naphthyl 5-[4-(2-carboxyethyl)benzoylaminomethyl]furan-2-carboxylate hydrochloride] |  |  |  |  |  |  |  |  |
| 1.6 | 0.026 | 0.25 | 0.15 |  | 0.6 | 0.16 | N=C(N)c1ccc2cc(OC(=O)c3ccc(CNC(=O)[C@H]4CC[C@@H](C(=O)O)CC4)o3)ccc2c1 [Example 10, 6-Amidino-2-naphthyl 5-(cis-4-carboxy-1-cyclohexanoylaminomethyl)furan-2-carboxylate hydrochloride] |  |  |  |  |  |  |  |  |
| 0.6 | 0.21 | 0.77 | 0.27 | 2.8 | 0.48 |  | N=C(N)c1ccc2cc(OC(=O)c3ccc(CNC(=O)/C=C\C(=O)O)o3)ccc2c1 [Example 12, 6-Amidino-2-naphthyl 5-(cis-2-carboxyvinyl)carbonylaminomethylfuran-2-carboxylate methanesulfonate] |  |  |  |  |  |  |  |  |
| 1.3 | 0.35 | 3.8 | 0.24 | 6.9 | 0.34 |  | N=C(N)c1ccc2cc(OC(=O)c3ccc(CNC(=O)C(=O)O)o3)ccc2c1 [Example 16, 6-Amidino-2-naphthyl 5-oxaloaminomethylfuran-2-carboxylate hydrochloride] |  |  |  |  |  |  |  |  |
| 0.96 | 0.18 | 0.7 | 0.33 | 0.54 | 0.31 |  | N=C(N)c1ccc2cc(OC(=O)c3ccc(CNC(=O)CCC(=O)O)o3)ccc2c1 [Example 21, 6-amidino-2-naphthyl 5-(3-carboxypropionylaminomethyl)furan-2-carboxylate hydrochloride] |  |  |  |  |  |  |  |  |

| SMILES | IC50 (thrombin) [µM] | IC50 (C1s) [µM] | IC50 (kallikrein) [µM] | IC50 (plasmin; [1]) [µM] | IC50 (C1r; [2]) [µM] | IC50 (trypsin; [3]) [µM] | IC50 (C1r) [µM] | IC50 (trypsin) [µM] | inhibition at 10 µM (thrombin) [%] | inhibition at 10 µM (C1s; read-out: Cls: percentage inhibition) [%] | Kal: percentage inhibition (kallikrein) [%] | inhibition at 10 µM (C1r; at a concentration of 1 × 10^-5 M) [%] | inhibition at 10 µM (trypsin; read-out: Try: percentage inhibition) [%] | inhibition at 10 µM (C1r) [%] | IC50 (plasmin) [µM] |
| --- | --- | --- | --- | --- | --- | --- | --- | --- | --- | --- | --- | --- | --- | --- | --- |
| CC(C)(C)OC(=O)C=Cc1ccc(C(=O)NCc2ccc(C(=O)Oc3ccc4cc(C(=N)N)ccc4c3)o2)cc1 [Example 1, 6-Amidino-2-naphthyl 5-[4-(2-t-butoxycarbonylvinyl)benzoylaminomethyl]furan-2-carboxylate hydrobromide] | 0.35 | 0.27 | 0.47 | 0.15 | 0.34 |  |  | 0.35 |  |  |  |  |  |  |  |
| Cl.N=C(N)c1ccc2cc(OC(=O)c3ccc(CNC(=O)c4ccc(C=CC(=O)O)cc4)o3)ccc2c1 [Example 2, 6-Amidino-2-naphthyl 5-[4-(2-carboxyvinyl)benzoylaminomethyl]furan-2-carboxylate hydrochloride] |  |  |  | 4.8 |  | 8.4 |  |  | 47 | 17 | 46 | 29 |  |  |  |
| Cl.N=C(N)c1ccc2cc(OC(=O)c3ccc(CNC(=O)c4ccc(C(=O)O)cc4)o3)ccc2c1 [Example 3, 6-Amidino-2-naphthyl 5-(4-carboxybenzoylaminomethyl)furan-2-carboxylate hydrochloride] |  | 3.4 |  | 8.6 |  |  |  |  | 26 |  | 33 |  | 48 | 34 |  |
| CC(C)(C)OC(=O)c1ccc(CC(=O)NCc2ccc(C(=O)Oc3ccc4cc(C(=N)N)ccc4c3)o2)cc1 [Example 5, 6-Amidino-2-naphthyl 5-(4-t-butoxycarbonylphenylacetylaminomethyl)furan-2-carboxylate hydrochloride] | 0.18 | 0.36 | 0.3 | 0.1 | 0.073 | 0.34 |  |  |  |  |  |  |  |  |  |
| CC(C)(C)OC(=O)CC(=O)NCc1ccc(C(=O)Oc2ccc3cc(C(=N)N)ccc3c2)o1 [Example 15, 6-Amidino-2-naphthyl 5-t-butoxymalonylaminomethylfuran-2-carboxylate hydrochloride] | 0.4 | 0.23 | 0.32 | 0.31 | 0.84 | 0.71 |  |  |  |  |  |  |  |  |  |
| CC(C)(C)OC(=O)CCC(=O)NCc1ccc(C(=O)Oc2ccc3cc(C(=N)N)ccc3c2)o1 [Example 18, 6-amidino-2-naphthyl 5-(3-t-butoxycarbonylpropionylaminomethyl)furan-2-carboxylate hydrochloride] | 0.35 | 0.19 | 0.21 |  | 0.34 | 0.4 |  |  |  |  |  |  |  |  | 0.19 |
| CC(C)(C)OC(=O)CCCC(=O)NCc1ccc(C(=O)Oc2ccc3cc(C(=N)N)ccc3c2)o1 [Example 19, 6-Amidino-2-naphthyl 5-(4-t-butoxycarbonyl-butyrylaminomethyl)furan-2-carboxylate hydrochloride] | 0.36 | 0.72 | 0.25 | 0.17 | 1.8 | 0.25 |  |  |  |  |  |  |  |  |  |
| CC(C)(C)OC(=O)CCC(NC(=N)N)C(=O)NCc1ccc(C(=O)Oc2ccc3cc(C(=N)N)ccc3c2)o1 (stereo not drawn) [Example 20, 6-amidino-2-naphthyl 5-(4-t-butoxycarbonyl-2-guanidinobutyrylaminomethyl)furan-2-carboxylate hydrochloride hydrobromide] | 0.46 | 0.39 | 0.13 | 0.18 | 0.38 | 2 |  |  |  |  |  |  |  |  |  |
